# Measured values from patent US5424442A, “Water-soluble methine compounds useful in photographic silver halide emulsion containing the same” (Fuji Photo Film Co., Ltd., priority 1990, dated 1995).
# Values joined by “and” are separate entries in the source; they are usually repeats but may differ in a detail not shown here. Equal values may be shown once. Read-outs that look alike come from different tables or passages of the source.
# Legend:
# [1] = Solubility in solvents (dissolution in incubator, filtration through microfilter, visible absorption); assay type: physicochemical; conditions: for Solubility in Water / Solubility in MeOH / Solubility in H2O: 720 min
# From the text: The solubility of some of the compounds within formula (I) was accurately measured.
# The measurement of solubility was made in the following manner.
# [2] = Spectral sensitization of photographic silver halide emulsion; set-up: Yellow filter sensitivity (SY) / Red filter sensitivity (SR): scale not given here; conditions: for Maximum Sensitization: spectrogram, tungsten light source of 2666° K.; for Yellow filter sensitivity (SY): yellow filter SC-50, 5 seconds exposure; for Yellow filter sensitivity (SY) / Red filter sensitivity (SR): standard point Fog+0.2; for Red filter sensitivity (SR): red filter SC-60, 5 seconds exposure
# Protocol: A silver halide emulsion comprising pure silver bromide and having a cubic crystal form (the area ratio of the plane to the entire surface area of grain being 92%) was prepared and subjected to a sulfur sensitization treatment. The average diameter of silver halide grains contained in the emulsion was 0.68 μm, and 0.74 mol of silver halide per kg of emulsion was contained in the emulsion. One kg of the emulsion was weighed in each of pots. An aqueous solution of each of the compounds of formula (I) indicated in Tables 4 and 5 was added to the pot, and the mixture was mixed with stirring at 40° C. For the purpose of comparison, comparative compounds 1 and 2 wherein counter ion was iodide were dispersed in water and added to respective pots.
# Further, 4-hydroxy-6-methyl-1,3,3a,7-tetraazaindene in an amount of 0.1 g/kg of emulsion, sodium salt of 2,4-dichloro-6-hydroxy-1,3,5-triazine in an amount of 0.1 g/kg of emulsion and sodium dodecylbenzenesulfonate in an amount of 0.1 g/kg of emulsion in order were added thereto. The emulsion was then coated on a polyethylene terephthalate film to obtain a photographic material.
# Each of these samples was exposed through an optical wedge for 5 seconds by using a yellow filter (SC-50, a product of Fuji Photo Film Co., Ltd.) or a red filter (SC-60, a product of Fuji Photo Film Co., Ltd.) and tungsten light (5400° K.).
# A spectrogram was obtained by using a grating spectrograph having a tungsten light source of 2666° K., and the maximum sensitization was measured.
# After exposure, the samples were developed at 20° C for 4 minutes by using the following developing solution. The density of each of the developed films was measured by using a densitometer (manufactured by Fuji Photo Film Co., Ltd. Spectral sensitivity, that is, yellow filter sensitivity (SY) or red filter sensitivity (SR), sensitivity (SB) in the sensitive region inherent in silver halide, and fog were determined. Sensitivity was determined when the standard point of optical density was referred to as (Fog+0.2). Composition of Developing Solution […]
# Two volumes of water were added thereto to obtain a working solution when used.
# [3] = water, Table 3, read-out: Solubility in Water
# [4] = MeOH, 37° C., 12 hours, Table 1
# [5] = MeOH, 37° C., 12 hours, Table 2
# [6] = water, H2O, 37° C., 12 hours, Table 2, read-out: Solubility in H2O
smiles,measurement,setting,value
"CCN1C(=CC=c2sc(=Cc3sc(-c4ccccc4)c(-c4ccccc4)[n+]3CC)n(CC)c2=O)Sc2ccccc21 [Comparative Compound 1, reference compound]",Water solubility (in words),[1]; water,low solubility in water
same,Spectral sensitization performance (in words),[2]; added to emulsion as aqueous solution or aqueous dispersion,the desired spectral sensitivity cannot be obtained
same,Maximum Sensitization,[2]; Table 4,638 nm
same,Yellow filter sensitivity (SY),[2]; Table 4,100
CCN1C(=CC=c2sc(=Cc3sc4ccccc4[n+]3CC)n(CC)c2=O)Sc2ccc(Cl)cc21 [Compound 3],solubility at 12 h,[1]; [3],7200 µg/mL
CN1C(=CC=c2sc(=Cc3sc4ccccc4[n+]3C)n(C)c2=O)Sc2ccccc21 [Compound 7],Solubility in Water,"[1]; water, Table 3",6.2 mg/mL
CN1C(=CC=c2sc(=Cc3sc4ccccc4[n+]3C)n(C)c2=O)Sc2ccccc21 [Compound 9],Solubility in Water,"[1]; water, Table 3",3.8 mg/mL
CN1C(=CC=c2sc(=Cc3sc4ccccc4[n+]3C)n(C)c2=O)Sc2ccccc21 [Compound 10],Solubility in Water,"[1]; water, Table 3",> 10 mg/mL
CCN1C(=CC=c2sc(=Cc3sc4c5ccccc5ccc4[n+]3CC)n(CC)c2=O)Sc2ccc3ccccc3c21 [Compound 25],Solubility in MeOH,"[1]; MeOH, 37° C., 12 hours",> 25 mmol/L
same,Solubility in MeOH,[1]; [4],> 16 mg/mL
same,solubility at 12 h,"[1]; water, H2O, 37° C., 12 hours, Table 1, read-out: Solubility in H2O",6560 µg/mL
same,solubility at 12 h,"[1]; water, H2O, 37° C., 12 hours, read-out: Solubility in H2O",10.1 mM
CCN1C(=CC=c2sc(=Cc3sc4c5ccccc5ccc4[n+]3C)n(CC)c2=O)Sc2ccc3ccccc3c21 [Compound 33],Solubility in Water,"[1]; water, Table 3",5.3 mg/mL
CCN1C(=CC=c2sc(=Cc3sc4c5ccccc5ccc4[n+]3C)n(CC)c2=O)Sc2ccc3ccccc3c21 [Compound 34],Solubility in Water,"[1]; water, Table 3",7.1 mg/mL
CCN1C(=CC=c2sc(=Cc3sc4c5ccccc5ccc4[n+]3C)n(CC)c2=O)Sc2ccc3ccccc3c21 [Compound 35],Solubility in Water,"[1]; water, Table 3",> 10 mg/mL
CCN1C(=CC=c2sc(=Cc3sc4c5ccccc5ccc4[n+]3C)n(CC)c2=O)Sc2ccc3ccccc3c21 [Compound 36],Solubility in Water,"[1]; water, Table 3",4.8 mg/mL
CCn1c(=Cc2sc3c4ccccc4ccc3[n+]2CC)sc(=CC=C2SCCN2C)c1=O [Compound 45],solubility at 12 h,[1]; [3],> 10000 µg/mL
CCN1C(C)=CSC1=CC=c1sc(=Cc2sc3ccccc3[n+]2CC)n(CC)c1=O [Compound 53],Solubility in H2O,"[1]; H2O, 37° C., 12 hours",> 37 mmol/L
same,Solubility in H2O,"[1]; H2O, 37° C., 12 hours, Table 1",> 19 mg/mL
same,Solubility in MeOH,"[1]; MeOH, 37° C., 12 hours",> 33 mmol/L
same,Solubility in MeOH,[1]; [4],> 17 mg/mL
CCN1C(=CC=c2sc(=Cc3oc4c5ccccc5ccc4[n+]3CC)n(CC)c2=O)Sc2c1ccc1ccccc21 [Compound 86],Maximum Sensitization,[2]; Table 4,630 nm
same,Yellow filter sensitivity (SY),[2]; Table 4,890
CCN1C(=CC=c2sc(=Cc3sc(-c4ccccc4)c(-c4ccccc4)[n+]3CC)n(CC)c2=O)Oc2ccccc21 [Compound 88],Maximum Sensitization,[2]; Table 4,565 nm
same,Yellow filter sensitivity (SY),[2]; Table 4,2085
CCN1C(=CC=c2sc(=Cc3sc(-c4ccccc4)c(-c4ccccc4)[n+]3CC)n(CC)c2=O)Sc2ccc3ccccc3c21 [Compound 89],Maximum Sensitization,[2]; Table 4,640 nm
same,Yellow filter sensitivity (SY),[2]; Table 4,705
CCn1c(=Cc2sc(-c3ccccc3)c(-c3ccccc3)[n+]2CC)sc(=CC=C2N(C)c3ccccc3C2(C)C)c1=O [Compound 91],Maximum Sensitization,[2]; Table 4,600 nm
same,Yellow filter sensitivity (SY),[2]; Table 4,1730
CCCn1c(=Cc2sc3ccccc3[n+]2CC)sc(=CC=C2C=Cc3ccccc3N2CC)c1=O [Compound 96],Red filter sensitivity (SR),[2]; Table 5,3600
same,Maximum Sensitization,[2]; Table 5,660 nm
CC[n+]1c(C=c2sc(=CC=C3C=CN(C)C=C3)c(=O)n2C)sc2ccccc21 [Compound 98],solubility at 12 h,[1]; [3],6800 µg/mL
C=CCN1C=CC(=CC=c2sc(=Cc3sc4c5ccccc5ccc4[n+]3CC)n(CC=C)c2=O)c2ccccc21 [Compound 100],Red filter sensitivity (SR),[2]; Table 5,1685
same,Maximum Sensitization,[2]; Table 5,715 nm
CCCn1c(=Cc2oc3cc(C)c(C)cc3[n+]2CC)sc(=CC=C2C=CN(CC)c3ccccc32)c1=O [Compound 101],Red filter sensitivity (SR),[2]; Table 5,2270
same,Maximum Sensitization,[2]; Table 5,695 nm
CCN1C(=CC=c2sc(=Cc3cc[n+](C)c4ccccc34)n(C)c2=O)N(CC)c2ccccc21 [Compound 104],solubility at 12 h,[1]; [3],4100 µg/mL
CCn1c(=Cc2sc3cc(C)c(C)cc3[n+]2CC)sc(=C2Sc3ccccc3N2C)c1=O [Compound 110],Solubility in MeOH,[1]; [5],> 10 mg/mL
same,solubility at 12 h,[1]; [6],1700 µg/mL
CCn1c(=Cc2sc3cc(C)c(C)cc3[n+]2CC)sc(=C2Sc3ccc(OC)cc3N2C)c1=O [Compound 111],Maximum Sensitization,[2]; Table 4,540 nm
same,Yellow filter sensitivity (SY),[2]; Table 4,2085
CCn1c(=Cc2sc3ccccc3[n+]2C)sc(=C2Oc3ccc4ccccc4c3N2C)c1=O [Compound 127],solubility at 12 h,[1]; [3],5700 µg/mL
CCn1c(=Cc2oc3ccccc3[n+]2CC)sc(=C2Sc3ccccc3N2C)c1=O [Compound 128],Solubility in H2O,"[1]; H2O, 37° C., 12 hours, Table 2",> 10 mg/mL
same,Solubility in MeOH,[1]; [5],> 10 mg/mL
CCn1c(=Cc2oc3ccc(-c4ccccc4)cc3[n+]2CC)sc(=C2Sc3ccccc3N2C)c1=O [Compound 133],Maximum Sensitization,[2]; Table 4,520 nm
same,Yellow filter sensitivity (SY),[2]; Table 4,1620
CCn1c(=CC2=[N+](CC)CCS2)sc(=C2Sc3ccccc3N2C)c1=O [Compound 142],Maximum Sensitization,[2]; Table 4,495 nm
same,Yellow filter sensitivity (SY),[2]; Table 4,300
CN1C(=c2sc(=Cc3cc[n+](C)cc3)n(C)c2=O)Sc2ccccc21 [Compound 145],solubility at 12 h,[1]; [3],8800 µg/mL
CCn1c(=Cc2sc3ccccc3[n+]2CC)sc(=C2C=Cc3ccccc3N2C)c1=O [Compound 147],solubility at 12 h,[1]; [3],8100 µg/mL
CCn1c(=CC2=CC(=Cc3sc4ccccc4[n+]3CC)CC(C)(C)C2)sc(=C2Sc3ccccc3N2C)c1=O [Compound 148],solubility at 12 h,[1]; [3],3200 µg/mL
CCn1c(=CC2=CC(=Cc3sc4cc(C)c(C)cc4[n+]3CC)CC(C)(C)C2)sc(=C2Sc3ccccc3N2C)c1=O [Compound 151],Red filter sensitivity (SR),[2]; Table 5,1535
same,Maximum Sensitization,[2]; Table 5,750 nm
CCN1C(=CC=c2sc(=CC3=CC(=Cc4sc5cc(C)c(C)cc5[n+]4CC)Oc4ccccc43)n(CC)c2=O)Sc2ccccc21 [Compound 153],solubility at 12 h,[1]; [3],1400 µg/mL
CCn1c(=C2CCC[n+]3c2sc2ccccc23)sc(=C2Sc3ccccc3N2C)c1=O [Compound 156],solubility at 12 h,[1]; [3],3700 µg/mL
"CCN1C(C)=CSC1=CC=c1sc(=Cc2sc3ccccc3[n+]2CC)n(CC)c1=O [Compound A, reference compound]",Solubility in H2O,"[1]; H2O, 37° C., 12 hours",0.17 mmol/L
same,Solubility in H2O,"[1]; H2O, 37° C., 12 hours, Table 1",0.10 mg/mL
same,Solubility in MeOH,"[1]; MeOH, 37° C., 12 hours",1.11 mmol/L
same,Solubility in MeOH,[1]; [4],0.65 mg/mL
same,solubility at 12 h,"[1]; dmso, organic solvent or mixture, DMSO, 37° C., 12 hours, read-out: Solubility in DMSO",20000 µM and 11700 µg/mL
"CCn1c(=Cc2oc3ccccc3[n+]2CC)sc(=C2Sc3ccccc3N2C)c1=O [Compound D, reference compound]",Solubility in H2O,"[1]; H2O, 37° C., 12 hours, Table 2",0.2 mg/mL
same,Solubility in MeOH,[1]; [5],2.0 mg/mL
"CCN1C(=CC=c2sc(=Cc3sc4c5ccccc5ccc4[n+]3CC)n(CC)c2=O)Sc2ccc3ccccc3c21 [Compound E, reference compound]",Solubility in MeOH,"[1]; MeOH, 37° C., 12 hours",0.03 mmol/L
same,Solubility in MeOH,[1]; [4],0.03 mg/mL
"CCn1c(=Cc2sc3cc(C)c(C)cc3[n+]2CC)sc(=C2Sc3ccccc3N2C)c1=O [drawing 127, reference compound]",Solubility in MeOH,[1]; [5],0.1 mg/mL
"CCn1c(=Cc2oc3c4ccccc4ccc3[n+]2CC)sc(=C2Sc3ccccc3N2C)c1=O [drawing 128, reference compound]",Solubility in MeOH,[1]; [5],0.15 mg/mL
CCN1C(=CC=c2sc(=Cc3cc[n+](CC)c4ccccc34)n(CC)c2=O)C=Cc2ccccc21 [reference compound],solubility at 12 h,"[1]; methanol, organic solvent or mixture, MeOH, 37° C., 12 hours, Table 2, read-out: Solubility in MeOH",2800 µg/mL
same,solubility at 12 h,[1]; [6],300 µg/mL
